The values that follow come from ChEMBL document CHEMBL5029145, “Discovery of AZD8154, a Dual PI3Kγδ Inhibitor for the Treatment of Asthma” (J Med Chem, 2021).

Data set [1] can be described thus: Half life in rat plasma at 0.5 mg/kg, iv. The class given is ADME, organism-based.
For data set [2], the target named is Phosphatidylinositol 4,5-bisphosphate 3-kinase catalytic subunit alpha isoform (Homo sapiens, UniProt P42336). Put plainly: Inhibition of recombinant human PI3Kalpha assessed as reduction in ADP production using Dic8-PIP2 as substrate pre-treated for 15 mins followed by substrate addition measured after 60 mins by ADP-glo assay.
Chain of Phosphatidylinositol 4,5-bisphosphate 3-kinase catalytic subunit alpha isoform (P42336 whole entry, canonical isoform): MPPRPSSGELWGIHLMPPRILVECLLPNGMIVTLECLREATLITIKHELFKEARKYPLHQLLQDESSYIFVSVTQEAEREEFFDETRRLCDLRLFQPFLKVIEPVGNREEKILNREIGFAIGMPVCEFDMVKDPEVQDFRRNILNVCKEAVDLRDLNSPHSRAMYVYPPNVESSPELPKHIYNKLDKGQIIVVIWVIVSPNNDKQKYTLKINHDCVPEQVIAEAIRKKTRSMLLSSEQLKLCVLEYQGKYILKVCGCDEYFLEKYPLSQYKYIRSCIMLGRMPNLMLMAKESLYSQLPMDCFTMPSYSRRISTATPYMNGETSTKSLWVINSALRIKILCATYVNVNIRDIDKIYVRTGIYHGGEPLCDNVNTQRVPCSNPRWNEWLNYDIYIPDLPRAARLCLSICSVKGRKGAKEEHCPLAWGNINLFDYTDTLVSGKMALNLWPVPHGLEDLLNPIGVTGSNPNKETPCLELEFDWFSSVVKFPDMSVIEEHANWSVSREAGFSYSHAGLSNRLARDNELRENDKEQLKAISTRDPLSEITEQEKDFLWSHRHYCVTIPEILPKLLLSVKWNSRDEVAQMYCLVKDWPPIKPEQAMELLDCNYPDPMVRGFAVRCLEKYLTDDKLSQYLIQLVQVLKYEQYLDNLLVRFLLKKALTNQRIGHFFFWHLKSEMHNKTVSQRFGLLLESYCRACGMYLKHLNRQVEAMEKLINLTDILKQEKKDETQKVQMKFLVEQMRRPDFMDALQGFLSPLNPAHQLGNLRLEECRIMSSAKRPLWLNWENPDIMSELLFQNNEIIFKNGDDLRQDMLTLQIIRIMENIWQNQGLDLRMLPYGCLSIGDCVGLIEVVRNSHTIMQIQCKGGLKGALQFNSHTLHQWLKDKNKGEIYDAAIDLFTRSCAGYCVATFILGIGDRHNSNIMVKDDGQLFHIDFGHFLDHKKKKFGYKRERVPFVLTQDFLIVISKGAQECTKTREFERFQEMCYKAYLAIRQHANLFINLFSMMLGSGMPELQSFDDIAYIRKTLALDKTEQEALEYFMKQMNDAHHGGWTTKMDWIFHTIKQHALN
Data set [3] can be described thus: Apparent terminal half life in rat administered via inhalation. Format: ADME. Particulars: in vivo, inhaled or intranasal.
Data set [4] in a line: Volume of distribution at steady state in rat at 0.5 mg/kg, iv. Format: ADME, organism-based. Particulars: in vivo, read-out: Vdss.
Data set [5] in a line: Clearance in rat at 0.5 mg/kg, iv. The class given is ADME, organism-based. The settings on record: in vivo.
Data set [6] is described as follows: Solubility of compound in at pH 7.4 at 1 mg/ml using crystalline form of sample incubated for 24 hrs by HPLC MS analysis. Format: physicochemical.
The nature of data set [7]: Distribution coefficient, logD of compound at pH 7.4. Format: physicochemical. The settings on record: octanol/water.
Data set [8] deals with Phosphatidylinositol 4-phosphate 3-kinase C2 domain-containing subunit alpha (Homo sapiens, UniProt O00443). Put plainly: Inhibition of PIK3C2A (unknown origin) assessed as reduction in substrate phosphorylation by FRET Adapta assay.
The target of data set [9] is Phosphatidylinositol 3-kinase catalytic subunit type 3 (Homo sapiens, UniProt Q8NEB9). Put plainly: Inhibition of PIK3C3 (unknown origin) assessed as reduction in substrate phosphorylation by FRET Adapta assay.
Chain of Phosphatidylinositol 3-kinase catalytic subunit type 3 (Q8NEB9 whole entry): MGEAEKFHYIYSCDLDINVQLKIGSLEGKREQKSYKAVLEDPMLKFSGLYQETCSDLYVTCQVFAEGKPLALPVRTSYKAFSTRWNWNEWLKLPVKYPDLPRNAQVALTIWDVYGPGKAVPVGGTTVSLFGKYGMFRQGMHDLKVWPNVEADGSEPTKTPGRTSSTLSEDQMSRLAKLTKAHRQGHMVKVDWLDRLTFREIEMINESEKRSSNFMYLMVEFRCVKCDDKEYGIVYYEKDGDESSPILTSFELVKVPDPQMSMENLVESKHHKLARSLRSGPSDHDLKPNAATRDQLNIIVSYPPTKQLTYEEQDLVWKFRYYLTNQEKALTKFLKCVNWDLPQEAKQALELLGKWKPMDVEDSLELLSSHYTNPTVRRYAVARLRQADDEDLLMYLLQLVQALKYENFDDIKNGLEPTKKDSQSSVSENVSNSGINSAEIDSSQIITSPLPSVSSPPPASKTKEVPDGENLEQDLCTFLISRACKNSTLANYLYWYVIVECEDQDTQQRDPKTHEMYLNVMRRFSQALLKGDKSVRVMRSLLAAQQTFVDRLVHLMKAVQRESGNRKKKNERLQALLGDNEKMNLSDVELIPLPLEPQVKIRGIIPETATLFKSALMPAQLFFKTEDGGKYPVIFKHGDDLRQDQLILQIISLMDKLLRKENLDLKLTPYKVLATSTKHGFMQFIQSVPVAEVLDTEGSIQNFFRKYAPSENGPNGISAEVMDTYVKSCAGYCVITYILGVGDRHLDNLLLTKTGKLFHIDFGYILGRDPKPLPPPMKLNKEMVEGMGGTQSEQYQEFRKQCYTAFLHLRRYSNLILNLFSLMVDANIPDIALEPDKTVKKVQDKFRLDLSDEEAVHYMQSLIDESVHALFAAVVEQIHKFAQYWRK
Data set [10] deals with Phosphatidylinositol 4-kinase alpha (Homo sapiens, UniProt P42356). Put plainly: Inhibition of PI4KA (unknown origin) assessed as reduction in substrate phosphorylation by FRET Adapta assay.
The target of data set [11] is Phosphatidylinositol 4-kinase beta (Homo sapiens, UniProt Q9UBF8). Put plainly: Inhibition of PI4KB (unknown origin) assessed as reduction in substrate phosphorylation by FRET Adapta assay.
Chain of Phosphatidylinositol 4-kinase beta (Q9UBF8 whole entry): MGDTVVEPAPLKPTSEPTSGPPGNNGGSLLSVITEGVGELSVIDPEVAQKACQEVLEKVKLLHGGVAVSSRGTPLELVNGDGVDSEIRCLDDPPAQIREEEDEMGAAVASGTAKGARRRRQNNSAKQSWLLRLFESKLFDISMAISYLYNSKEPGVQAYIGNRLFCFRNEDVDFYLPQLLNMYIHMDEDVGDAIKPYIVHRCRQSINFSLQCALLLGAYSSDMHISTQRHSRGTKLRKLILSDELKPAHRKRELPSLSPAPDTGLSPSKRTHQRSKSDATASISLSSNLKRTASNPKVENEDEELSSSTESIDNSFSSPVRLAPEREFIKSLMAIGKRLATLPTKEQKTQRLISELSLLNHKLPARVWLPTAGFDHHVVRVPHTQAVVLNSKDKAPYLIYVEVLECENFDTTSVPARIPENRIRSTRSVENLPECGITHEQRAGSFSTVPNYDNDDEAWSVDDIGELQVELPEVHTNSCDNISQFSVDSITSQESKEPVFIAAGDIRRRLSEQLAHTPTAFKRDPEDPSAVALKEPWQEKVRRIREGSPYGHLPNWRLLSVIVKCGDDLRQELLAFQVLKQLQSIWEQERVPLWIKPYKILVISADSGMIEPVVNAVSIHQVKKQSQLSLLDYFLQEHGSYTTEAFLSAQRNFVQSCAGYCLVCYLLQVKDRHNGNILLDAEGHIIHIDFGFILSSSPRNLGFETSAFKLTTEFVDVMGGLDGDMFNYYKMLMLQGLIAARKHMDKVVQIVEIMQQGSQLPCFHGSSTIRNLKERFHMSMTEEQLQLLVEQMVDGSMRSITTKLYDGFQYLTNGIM
Data set [12] can be described thus: Permeability in human Caco2 cells. Format: ADME, cell-based. The settings on record: caco-2.
Data set [13] is described as follows: Thermodynamic stability assessed as onset melting temperature. The class given is physicochemical.
Data set [14] addresses Phosphatidylinositol 4,5-bisphosphate 3-kinase catalytic subunit gamma isoform (Homo sapiens, UniProt P48736). Put plainly: Inhibition of recombinant human PI3Kgamma assessed as reduction in ADP production using Dic8-PIP2 as substrate pre-treated for 15 mins followed by substrate addition measured after 60 mins by ADP-glo assay.
Data set [15] concerns the target T1, Phosphatidylinositol 4,5-bisphosphate 3-kinase catalytic subunit delta isoform (Homo sapiens, UniProt O00329).
T1 sequence (O00329 whole entry): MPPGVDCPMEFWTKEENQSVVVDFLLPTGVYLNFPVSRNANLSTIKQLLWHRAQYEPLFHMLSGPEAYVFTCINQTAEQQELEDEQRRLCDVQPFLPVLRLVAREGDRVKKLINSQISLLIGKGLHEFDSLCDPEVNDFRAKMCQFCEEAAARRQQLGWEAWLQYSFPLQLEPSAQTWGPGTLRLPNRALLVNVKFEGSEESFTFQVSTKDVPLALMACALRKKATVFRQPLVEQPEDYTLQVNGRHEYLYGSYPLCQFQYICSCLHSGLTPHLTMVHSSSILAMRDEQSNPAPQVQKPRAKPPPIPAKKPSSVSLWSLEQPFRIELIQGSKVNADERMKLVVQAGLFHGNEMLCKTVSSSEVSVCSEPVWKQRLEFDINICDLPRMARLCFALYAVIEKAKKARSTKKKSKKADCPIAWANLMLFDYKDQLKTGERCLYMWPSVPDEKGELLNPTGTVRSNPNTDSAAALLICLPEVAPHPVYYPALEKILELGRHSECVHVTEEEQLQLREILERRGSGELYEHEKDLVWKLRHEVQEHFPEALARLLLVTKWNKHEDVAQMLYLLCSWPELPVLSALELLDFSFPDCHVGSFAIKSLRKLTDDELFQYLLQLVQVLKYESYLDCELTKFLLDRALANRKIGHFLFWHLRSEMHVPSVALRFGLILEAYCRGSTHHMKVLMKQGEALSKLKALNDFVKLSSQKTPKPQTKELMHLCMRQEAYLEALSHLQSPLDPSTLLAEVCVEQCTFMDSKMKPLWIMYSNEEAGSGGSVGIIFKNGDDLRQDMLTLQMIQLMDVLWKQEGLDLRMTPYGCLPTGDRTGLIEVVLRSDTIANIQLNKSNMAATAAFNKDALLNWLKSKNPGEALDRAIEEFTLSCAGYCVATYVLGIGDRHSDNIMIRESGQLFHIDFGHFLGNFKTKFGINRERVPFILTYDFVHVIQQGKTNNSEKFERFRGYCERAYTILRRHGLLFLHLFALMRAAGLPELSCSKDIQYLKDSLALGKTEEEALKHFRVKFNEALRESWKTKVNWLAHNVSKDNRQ
Put plainly: Inhibition of recombinant human PI3Kdelta assessed as reduction in ADP production using Dic8-PIP2 as substrate pre-treated for 15 mins followed by substrate addition measured after 60 mins by ADP-glo assay.

Data set [16] deals with Phosphatidylinositol 4,5-bisphosphate 3-kinase catalytic subunit gamma isoform (Mus musculus, UniProt Q9JHG7). Put plainly: Inhibition of PI3Kgamma in C5a-stimulated mouse RAW 264 cells assessed as inhibition of AKT phosphorylation at Ser473 residue Pretreated for 15 mins followed by C5a stimulation measured after 3 mins by HTRF assay. The class given is cell-based.
Chain of Phosphatidylinositol 4,5-bisphosphate 3-kinase catalytic subunit gamma isoform (Mus musculus, UniProt Q9JHG7) (Q9JHG7 whole entry, canonical isoform): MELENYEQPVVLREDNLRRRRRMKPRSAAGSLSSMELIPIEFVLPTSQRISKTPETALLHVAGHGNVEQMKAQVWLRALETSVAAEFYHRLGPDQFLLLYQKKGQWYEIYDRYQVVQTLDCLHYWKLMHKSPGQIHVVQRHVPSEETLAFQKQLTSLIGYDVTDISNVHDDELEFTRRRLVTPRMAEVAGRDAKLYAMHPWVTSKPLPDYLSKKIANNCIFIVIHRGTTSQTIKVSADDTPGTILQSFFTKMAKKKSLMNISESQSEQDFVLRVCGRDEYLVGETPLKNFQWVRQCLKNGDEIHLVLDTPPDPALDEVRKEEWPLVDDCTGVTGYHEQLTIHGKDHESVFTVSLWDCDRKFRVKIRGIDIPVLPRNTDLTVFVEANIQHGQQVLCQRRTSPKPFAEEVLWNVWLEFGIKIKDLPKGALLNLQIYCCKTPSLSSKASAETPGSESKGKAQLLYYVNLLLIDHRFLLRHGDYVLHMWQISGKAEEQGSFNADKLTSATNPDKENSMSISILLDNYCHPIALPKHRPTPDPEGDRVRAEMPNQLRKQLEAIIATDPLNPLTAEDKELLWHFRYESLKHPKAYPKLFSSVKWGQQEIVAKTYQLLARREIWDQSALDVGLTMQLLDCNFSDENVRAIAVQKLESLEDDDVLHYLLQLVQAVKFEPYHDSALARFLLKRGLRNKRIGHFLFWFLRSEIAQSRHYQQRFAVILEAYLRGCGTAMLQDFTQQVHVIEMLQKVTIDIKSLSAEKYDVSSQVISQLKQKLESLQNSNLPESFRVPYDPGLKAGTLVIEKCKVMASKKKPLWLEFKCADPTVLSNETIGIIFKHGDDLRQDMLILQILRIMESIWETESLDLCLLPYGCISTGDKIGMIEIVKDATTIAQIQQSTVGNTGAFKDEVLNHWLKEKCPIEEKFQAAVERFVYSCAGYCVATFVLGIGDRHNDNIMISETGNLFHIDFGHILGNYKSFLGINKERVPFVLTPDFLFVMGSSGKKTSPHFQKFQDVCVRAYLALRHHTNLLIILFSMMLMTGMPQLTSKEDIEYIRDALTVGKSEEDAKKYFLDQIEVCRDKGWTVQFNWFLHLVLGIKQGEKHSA
Data set [17] has as its target T1, Phosphatidylinositol 4,5-bisphosphate 3-kinase catalytic subunit delta isoform. Put plainly: Inhibition of PI3Kdelta in anti-IgM-stimulated human JeKo-1 cells assessed as inhibition of AKT phosphorylation at Ser473 residue incubated for 60 mins by TR-FRET assay.
Data set [18] addresses Phosphatidylinositol 4-phosphate 3-kinase C2 domain-containing subunit beta (Homo sapiens, UniProt O00750). Put plainly: Inhibition of PIK3C2B (unknown origin) assessed as reduction in substrate phosphorylation by FRET Adapta assay.
Data set [19] is described as follows: Dissociation constant, pKa of compound. The class given is physicochemical.

Values after ≈ are worked out from the molar mass of the structure shown.

Chain of Phosphatidylinositol 4,5-bisphosphate 3-kinase catalytic subunit gamma isoform (Homo sapiens, UniProt P48736) (P48736 whole entry, canonical isoform): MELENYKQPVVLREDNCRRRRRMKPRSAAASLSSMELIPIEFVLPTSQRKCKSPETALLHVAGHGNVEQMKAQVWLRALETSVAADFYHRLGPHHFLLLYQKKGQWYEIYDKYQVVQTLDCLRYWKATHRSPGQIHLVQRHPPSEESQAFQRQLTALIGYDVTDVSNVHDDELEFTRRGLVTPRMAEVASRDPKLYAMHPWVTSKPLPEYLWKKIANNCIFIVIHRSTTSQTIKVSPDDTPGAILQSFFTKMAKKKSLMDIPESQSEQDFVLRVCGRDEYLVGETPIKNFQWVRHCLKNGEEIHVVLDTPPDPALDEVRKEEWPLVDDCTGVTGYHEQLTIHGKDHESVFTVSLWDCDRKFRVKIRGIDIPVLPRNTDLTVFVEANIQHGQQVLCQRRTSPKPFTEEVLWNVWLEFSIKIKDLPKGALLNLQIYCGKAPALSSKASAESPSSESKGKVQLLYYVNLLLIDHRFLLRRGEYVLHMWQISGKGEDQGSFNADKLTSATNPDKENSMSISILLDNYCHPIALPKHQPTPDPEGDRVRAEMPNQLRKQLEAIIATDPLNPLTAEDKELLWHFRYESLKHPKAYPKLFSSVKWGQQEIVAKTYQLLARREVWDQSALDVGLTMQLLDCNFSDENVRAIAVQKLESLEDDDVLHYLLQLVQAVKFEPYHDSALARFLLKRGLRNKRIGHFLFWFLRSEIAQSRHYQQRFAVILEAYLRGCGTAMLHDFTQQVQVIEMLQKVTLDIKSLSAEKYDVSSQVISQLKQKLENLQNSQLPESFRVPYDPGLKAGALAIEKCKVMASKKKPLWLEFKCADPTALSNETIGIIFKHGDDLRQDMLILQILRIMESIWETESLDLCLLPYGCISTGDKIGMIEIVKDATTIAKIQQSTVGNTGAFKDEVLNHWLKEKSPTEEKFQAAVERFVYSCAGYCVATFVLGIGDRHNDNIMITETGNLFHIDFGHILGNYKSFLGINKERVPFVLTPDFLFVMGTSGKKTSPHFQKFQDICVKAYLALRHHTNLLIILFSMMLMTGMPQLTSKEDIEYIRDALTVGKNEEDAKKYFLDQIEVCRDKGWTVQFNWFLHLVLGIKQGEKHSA

As to `Cc1nc(Nc2cccc(N3CCOCC3=O)n2)sc1-c1cc2c(c(S(=O)(=O)NC3COC3)c1)C(=O)N([C@@H](C)C1CC1)C2`, the half-life in [1] was 42 min; in [3], 252 min. For the same compound, the IC50 in [2] is 100 nM; in data set [8] it was 3160 nM; in data set [9], 31.6 nM; in data set [10] it was above 10 µM; in [11] it was 501 nM. In addition, in [4], the Vd was 5.4 L/kg. Further, the clearance in data set [5] came to 136 mL/min/kg. In data set [6], the solubility (thermodynamic) at 24 h was found to be 0.337 µM (≈ 0.211 µg/mL). Moreover, in data set [7], the logD is 3.5. For the same compound, in data set [12], the permeability result is given as “Impermeable”. Further, the Tm in data set [13] amounted to 187 °C.

With `Cc1nc2sc1-c1cc3c(c(c1)S(=O)(=O)NCCOCCNC(=O)c1cccc(n1)N2)C(=O)N([C@@H](C)C1CC1)C3`, the half-life is 108 min in data set [1] and 414 min in [3]. Moreover, the IC50 in [14] was 2.51 nM; in [15], 0.631 nM; in data set [16] it was 0.794 nM; in data set [17] it was 2 nM; in data set [2], 39.8 nM; in [8] it was 316 nM. The IC50 in data set [18] is 0.794 nM; in data set [9] it was 25.1 nM; in [10], above 10 µM; in data set [11], 20 nM. The Vd in [4] stood at 8.6 L/kg. The clearance in [5] came out at 110 mL/min/kg. In data set [6], this compound returned a thermodynamic solubility at 24 h of 0.084 µM (≈ 0.0489 µg/mL). In data set [7], this compound returned a pH-dependent lipophilicity (logD) of 3.7. Moreover, the permeability entry in data set [12] is recorded as “Permeable”. Besides, in [13], the Tm amounted to 377 °C.

Consider `Cc1nc2sc1-c1cc3c(c(c1)S(=O)(=O)NCCCCCNC(=O)c1cccc(n1)N2)C(=O)N([C@@H](C)C1CC1)C3`, for which the IC50 in data set [14] was 1.26 nM; in [15] it was 0.501 nM; in data set [16], 1.58 nM; in data set [17], 1.26 nM; in data set [2], 31.6 nM.

In the case of `Cc1nc2sc1-c1cc3c(c(c1)S(=O)(=O)NCCN(C)CCNC(=O)c1cccc(n1)N2)C(=O)N([C@@H](C)C1CC1)C3`, the half-life is 108 min in data set [1] and 450 min in data set [3]. Moreover, the IC50 is 1.58 nM in [14]; 0.501 nM in [15]; 1.58 nM in data set [16]; 3.16 nM in data set [17]; 39.8 nM in data set [2]. Further, the Vd in [4] worked out at 7.3 L/kg. Moreover, in data set [5], the clearance is 83 mL/min/kg. Also, the thermodynamic solubility at 24 h in [6] was found to be 1.09 µM (≈ 0.649 µg/mL). The logD in data set [7] was 3.9. Further, the permeability entry in data set [12] was “Impermeable”. Besides, in data set [13], the Tm was 349 °C. For the same compound, in data set [19], the pKa is 6.4.

For the compound `Cc1nc2sc1-c1cc3c(c(c1)S(=O)(=O)NCCN(C)CCCNC(=O)c1cccc(n1)N2)C(=O)N([C@@H](C)C1CC1)C3`, the IC50 in [14] is 0.794 nM; in [15], 0.631 nM; in [16], 1 nM; in [17] it was 3.16 nM; in [2], 50.1 nM.

Take `CNS(=O)(=O)c1cc(-c2sc(Nc3cccc(N4CCN(C)CC4=O)n3)nc2C)cc2c1C(=O)N([C@@H](C)C1CC1)C2`: the IC50 in [15] was 1.58 nM; in data set [16], 1.26 nM; in data set [17], 6.31 nM; in data set [2] it was 39.8 nM.
